Where “and” joins values, the source holds several entries; their conditions need not be identical. Equal values may be shown once.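 Briefly, cells in 96-well plates were exposed to five compound concentrations for 48 h, and endpoints were estimated by linear interpolation. Here, GI50 denotes the concentration required for 50% inhibition of growth. The concentration for full growth arrest is given as TGI.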

The assay relates to MDA-MB-468 breast. Kind of assay: NCI-60 cell line screen, 48 h.
As to `Nc1ccccc1SC(CC(=O)c1ccccc1)c1c(Cl)cccc1Cl` (centres undefined), the GI50 was 6.3 µM and the TGI stood at 27.9 µM.

Consider `CCc1n(Cc2ccc3ccccc3c2)cc[n+]1Cc1ccc2ccccc2c1`, for which the GI50 was 0.182 µM and the TGI stood at 0.859 µM.

For `COc1ccc(/C(=N/O)c2cc(F)c(F)c(OC)c2F)cc1O`, the GI50 was 0.552 µM and the TGI was over 100 µM.

As to `C=CC(=O)N1CCN(c2nc(OC[C@@H]3CCCN3C)nc3c(F)c(-c4nc(N)cc(C)c4C(F)(F)F)c(Cl)cc23)[C@@H](C)C1`, the GI50 is 1.3 µM and the TGI was found to be 2.7 µM.

For `CC1=C(C(=O)Nc2cc(F)c(F)cc2F)C(c2ccc(N(C)C)cc2)C(C(=O)Nc2cc(F)c(F)cc2F)=C(C)N1`, the GI50 is 30.1 µM and the TGI was over 100 µM.

For the compound `O=C1C=CC(=O)N1c1ccc2ccccc2c1`, the GI50 was 3.56 µM and the TGI was 14.4 µM.

Take `O=C(NCCc1nccs1)c1cnc2c(S)cccc2c1`: the GI50 was 4.13 µM and the TGI was determined as 39 µM.

Take `O=C(Nc1cccc2[nH]c(C(F)(F)F)nc12)c1ccc(Br)cc1F`: the GI50 was 2.4 µM and the TGI was determined as 7.05 µM.

Take `COc1ccc(C(=O)c2no[n+]([O-])c2C(=O)c2ccc(OC)cc2)cc1`: the GI50 was 1.37 µM and the TGI came to 2.78 µM.

As to `C=CCn1c(C)nc2cc(Nc3nc(N4CCCC4)nc4nc[nH]c34)ccc21`, the GI50 was over 100 µM and the TGI was over 100 µM.

In the case of `Nc1ncnc2occ(-c3ccc(NC(=O)Nc4cccc(C(F)(F)F)c4)cc3)c12`, the GI50 is 3.62 µM and the TGI was 11.8 µM.

`O=C1/C(=C/c2ccc([N+](=O)[O-])s2)Oc2ccc(Br)cc21`: the GI50 is 0.263 µM and the TGI is 0.781 µM.

Consider `CC(=O)OC1C(C)OC(Oc2c(-c3ccc(O)cc3)oc3cc(O)cc(O)c3c2=O)C(O)C1OC(C)=O` (centres undefined), for which the GI50 was 17.8 µM and the TGI was 42.8 µM.

In the case of `COc1cc(/C=C/C(=O)c2cccc(-n3cc(-c4ccccc4)[nH]c3=O)c2)ccc1O`, the GI50 was 3.43 µM and the TGI was 22.2 µM.

On to `O=C(Nc1ccc(Br)cc1)c1cc(Br)ccc1O`, for which the GI50 was 0.328 µM and 0.722 µM; the TGI is 1.68 µM and 3.57 µM.

Consider `O=C(/C=C/c1cccc(Cl)c1)c1ccccc1`, for which the GI50 is 13.1 µM and the TGI came to 26.9 µM.

`Cc1nc2sc(C(=O)Nc3cccc4c3OCCO4)c(N)c2cc1C(C)O` (centres undefined): the GI50 was 3.64 µM and the TGI was over 100 µM.

Consider `CCCCCCCCCCCCNCCCc1ccccc1`, for which the GI50 was 1.54 µM and the TGI came to 3.17 µM.

In the case of `COc1cccc(C2=C(c3cn(C)c4c(C)cccc34)C(=O)NC2=O)c1`, the GI50 was 20.6 µM and the TGI is over 25 µM.

For the compound `Cc1nc2ccccc2c(/C=C/c2ccc(C(F)(F)F)cc2)c1C(=O)/C=C/c1ccccc1`, the GI50 is 1.78 µM and the TGI was determined as 3.7 µM.

As to `COc1cc2c(cc1OCCCN1CCN(CCCOc3cc4c(cc3OC)C(=O)N3C[C@H](F)C[C@H]3C=N4)CC1)N=C[C@@H]1C[C@@H](F)CN1C2=O`, the GI50 is under 0.01 µM and the TGI was 0.0397 µM.

Turning to `O=C1c2c[n+](Cc3ccccc3)ccc2-c2nc3ccccc3c3ccnc1c23`, the GI50 was 0.389 µM and the TGI turned out to be 1.02 µM.

In the case of `COc1cccc(/C=C2\COc3ccc(O)c(O)c3C2=O)c1OC`, the GI50 is 1.67 µM and the TGI came to 3.91 µM.

Take `CC(C)(C)c1ccc(OCCCCCCCN2CCNCC2)cc1`: the GI50 was 1.84 µM and the TGI worked out at 3.58 µM.

Regarding `NC(=O)c1c(NC(=O)c2ccc(C(F)(F)F)cc2Cl)sc2c1CCC(=O)C2`, the GI50 is 0.277 µM and the TGI amounted to 1.04 µM.

Take `COC(=O)c1ccc(C)cc1C1CN=NC12Cc1c(C)cccc1C2=O` (centres undefined): the GI50 is 30.7 µM and the TGI is over 100 µM.

Consider `Nc1ncnc2c1ncn2C1OC(F)(COS(N)(=O)=O)C(O)C1O` (centres undefined), for which the GI50 was over 100 µM and the TGI was over 100 µM.

For the compound `O=NN(CC(=O)NNc1ccccc1)CC(=O)NNc1ccccc1`, the GI50 is over 78.3 µM and the TGI is over 100 µM.

For the compound `Cc1nc2ccccc2c(/C=C/c2ccc(F)cc2)c1C(=O)/C=C/c1ccccc1`, the GI50 was 1.86 µM and the TGI is 4.26 µM.

In the case of `Cc1cc(N)c2cc(NC(=O)/C=C\c3ccccc3Cl)ccc2n1`, the GI50 is 0.398 µM and the TGI was 1.48 µM.

On to `O=[N+]([O-])c1cc2c(ccc3ccccc32)o1`, for which the GI50 is 0.169 µM and the TGI came out at 0.446 µM.

As to `CCn1cnc(C[C@H](NC(=O)[C@@H](NC(=O)Nc2cc(C(F)(F)F)cc(C(F)(F)F)c2)C(C)(C)C)C(=O)OC)c1`, the GI50 is 5.18 µM and the TGI is over 10 µM.
